# Calls of active or inactive are those of the source. The calls are words filed in the database; no cut-off is given here.
# Key:
# [1] = molecular target: T1, Calpain-1 catalytic subunit (Homo sapiens, UniProt P07384); assay: Compound was tested for its inhibitory activity against calpain […]
# T1 sequence (P07384 whole entry): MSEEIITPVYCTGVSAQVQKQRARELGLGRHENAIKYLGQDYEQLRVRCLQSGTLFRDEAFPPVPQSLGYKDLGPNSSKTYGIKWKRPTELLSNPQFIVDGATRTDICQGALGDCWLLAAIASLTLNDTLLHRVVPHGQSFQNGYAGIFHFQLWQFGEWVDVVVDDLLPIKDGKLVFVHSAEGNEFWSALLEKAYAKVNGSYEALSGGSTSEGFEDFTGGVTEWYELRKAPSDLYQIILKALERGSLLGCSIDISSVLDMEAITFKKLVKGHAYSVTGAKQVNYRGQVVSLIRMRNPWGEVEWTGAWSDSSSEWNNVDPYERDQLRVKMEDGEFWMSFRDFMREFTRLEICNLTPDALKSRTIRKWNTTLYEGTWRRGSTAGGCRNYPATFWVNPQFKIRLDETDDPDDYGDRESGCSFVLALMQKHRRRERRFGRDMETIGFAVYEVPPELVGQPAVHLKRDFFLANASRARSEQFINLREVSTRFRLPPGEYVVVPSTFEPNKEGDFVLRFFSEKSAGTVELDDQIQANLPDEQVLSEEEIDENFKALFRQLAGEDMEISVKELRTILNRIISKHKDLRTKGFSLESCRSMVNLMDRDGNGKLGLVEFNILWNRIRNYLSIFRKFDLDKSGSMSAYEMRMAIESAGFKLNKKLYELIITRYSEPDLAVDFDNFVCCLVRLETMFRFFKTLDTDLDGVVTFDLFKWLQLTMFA
# [2] = molecular target: T2, Calpain small subunit 1 (Sus scrofa) (UniProt P04574); assay: Compound was tested for its inhibitory activity against porcine erythrocyte Calpain 1 up to a concentration of 1 mM; NA=Not active
# T2 sequence (whole entry): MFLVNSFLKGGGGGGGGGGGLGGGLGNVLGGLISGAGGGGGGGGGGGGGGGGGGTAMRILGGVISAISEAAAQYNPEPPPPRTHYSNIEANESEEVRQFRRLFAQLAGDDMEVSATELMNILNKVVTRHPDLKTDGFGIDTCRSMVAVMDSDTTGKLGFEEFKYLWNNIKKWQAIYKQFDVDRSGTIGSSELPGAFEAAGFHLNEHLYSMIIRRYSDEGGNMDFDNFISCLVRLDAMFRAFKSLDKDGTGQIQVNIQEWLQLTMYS
# [3] = molecular target: T1, Calpain-1 catalytic subunit; assay: Compound was tested for its inhibitory activity against calpain […] (SC488)
IC50 [1] [µM],Activity [2],IC50 [3] [µM],SMILES
1.2,,,CC(C)c1ncc(Cc2ccccc2)[nH]c1=O
,inactive,,CN1C(=O)[C@H](Cc2ccccc2)N(C)C(=O)[C@H]1Cc1ccccc1
,inactive,0.8,CN1C(=O)[C@H](Cc2ccc(O)cc2)N(C)C(=O)[C@@H]1Cc1ccc(O)cc1
,inactive,,CN1C(=O)[C@H](Cc2ccccc2)N(C)C(=O)[C@@H]1Cc1ccccc1
